Experimental data: the supplement of paper PMC10307832

The cell lines below were run with CCN1CCN(c2ccc(Nc3cc(N(C)C(=O)Nc4c(Cl)c(OC)cc(OC)c4Cl)ncn3)cc2)CC1 [BGJ398] + C[C@@H](Oc1cc(-c2cnn(C3CCNCC3)c2)cnc1N)c1c(Cl)ccc(F)c1Cl [Crizotinib] (partner 1 µM) (assay: relative viability (nuclei count vs DMSO), 5 days (fraction); higher = more cells survive). Conditions: first compound 0.01 µM.
How it was run: (§1)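 Lung cancer cell lines in 1536-well plates got either a single drug or a fixed anchor-drug dose together with five library-drug doses (not always all listed) in √10 steps, by pin tool, on the day after seeding. Nuclei were counted after 5 days, and relative viability is the treated-to-vehicle ratio of nuclei counts. Values are medians of duplicate plates.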

Cell Line | relative viability
NCI-H2405 | 0.838
HOP-62 | 0.755
HCC-44 | 0.751
LU99A | 0.532
BEN | 0.735
HARA | 0.953
HCC-78 | 0.379
NCI-H322M | 1.04
LCLC-97TM1 | 0.34
NCI-H2009 | 1
A-427 | 0.905
NCI-H441 | 0.601
NCI-H1734 | 0.611
NCI-H460 | 0.59
NCI-H2347 | 0.593
SK-LU-1 | 0.905

Cell Line | relative viability
201T | 1.12
NCI-H1915 | 0.847
HCC-827 | 0.964
LXF-289 | 0.817
NCI-H23 | 0.531
NCI-H647 | 1.03
NCI-H1651 | 0.843
EPLC-272H | 0.903
NCI-H1792 | 0.939
NCI-H1355 | 1.01
NCI-H3122 | 0.229
NCI-H1437 | 0.91
NCI-H1755 | 0.907
NCI-H2023 | 0.618
HCC-15 | 0.861

Same assay, conditions: first compound 0.03162 µM

Cell Line | relative viability
NCI-H2405 | 0.906
HOP-62 | 1
HCC-44 | 0.738
LU99A | 0.49
BEN | 0.871
HARA | 1.06
HCC-78 | 0.313
NCI-H322M | 0.77
LCLC-97TM1 | 0.335
NCI-H2009 | 1.04
A-427 | 0.72
NCI-H441 | 0.841
NCI-H661 | 0.94
NCI-H1734 | 0.647
NCI-H460 | 0.861
NCI-H2347 | 0.878

Cell Line | relative viability
SK-LU-1 | 0.906
201T | 0.988
NCI-H1915 | 0.869
LXF-289 | 0.764
NCI-H23 | 0.539
NCI-H647 | 1.01
NCI-H1651 | 0.865
EPLC-272H | 0.814
NCI-H1792 | 0.999
NCI-H1355 | 1.02
NCI-H3122 | 0.271
NCI-H1437 | 0.924
NCI-H1755 | 0.888
NCI-H2023 | 0.62
HCC-15 | 0.825

Same assay, conditions: first compound 0.1 µM

Cell Line | relative viability
NCI-H2405 | 0.911
HOP-62 | 0.861
HCC-44 | 0.86
LU99A | 0.595
BEN | 0.893
HARA | 1.04
HCC-78 | 0.394
NCI-H322M | 0.956
LCLC-97TM1 | 0.317
NCI-H2009 | 1.02
A-427 | 0.698
NCI-H441 | 0.778
NCI-H661 | 0.926
NCI-H1734 | 0.719
NCI-H460 | 1.02
NCI-H2347 | 0.728

Cell Line | relative viability
SK-LU-1 | 1.01
201T | 0.996
NCI-H1915 | 0.998
HCC-827 | 0.92
LXF-289 | 0.761
NCI-H23 | 0.486
NCI-H647 | 1.16
NCI-H1651 | 0.874
EPLC-272H | 0.964
NCI-H1792 | 1.08
NCI-H1355 | 1.03
NCI-H3122 | 0.282
NCI-H1437 | 0.941
NCI-H1755 | 0.884
NCI-H2023 | 0.605
HCC-15 | 0.782

Same assay, conditions: first compound 0.3162 µM

Cell Line | relative viability
NCI-H2405 | 0.919
HOP-62 | 1.13
HCC-44 | 0.817
LU99A | 0.525
BEN | 0.81
HARA | 1.02
HCC-78 | 0.334
NCI-H322M | 0.961
LCLC-97TM1 | 0.463
NCI-H2009 | 1.04
A-427 | 0.598
NCI-H441 | 0.691
NCI-H661 | 0.983
NCI-H1734 | 0.594
NCI-H460 | 0.892
NCI-H2347 | 0.962

Cell Line | relative viability
SK-LU-1 | 0.926
201T | 1.01
NCI-H1915 | 0.936
HCC-827 | 0.973
LXF-289 | 0.705
NCI-H23 | 0.58
NCI-H647 | 1.06
NCI-H1651 | 0.876
EPLC-272H | 0.8
NCI-H1792 | 0.99
NCI-H1355 | 0.962
NCI-H3122 | 0.295
NCI-H1437 | 1.02
NCI-H1755 | 0.868
NCI-H2023 | 0.747
HCC-15 | 0.885

Same assay, conditions: first compound 1 µM

Cell Line | relative viability
NCI-H2405 | 0.849
HOP-62 | 0.737
HCC-44 | 0.701
LU99A | 0.479
BEN | 0.797
HARA | 1.07
HCC-78 | 0.348
NCI-H322M | 1.1
LCLC-97TM1 | 0.267
NCI-H2009 | 1.02
A-427 | 0.517
NCI-H441 | 0.783
NCI-H661 | 0.916
NCI-H1734 | 0.554
NCI-H460 | 0.826
NCI-H2347 | 0.698

Cell Line | relative viability
SK-LU-1 | 0.787
201T | 0.981
NCI-H1915 | 0.886
HCC-827 | 0.938
LXF-289 | 0.637
NCI-H23 | 0.566
NCI-H647 | 1.03
NCI-H1651 | 0.892
EPLC-272H | 0.968
NCI-H1792 | 0.93
NCI-H1355 | 1.08
NCI-H3122 | 0.272
NCI-H1437 | 0.877
NCI-H1755 | 0.84
NCI-H2023 | 0.655
HCC-15 | 0.9

The cell lines below were run with C1=CC2=NC=CN=C2C=C1/C=C/3\C(=O)NC(=O)S3 + CC(=O)Nc1cccc(-n2c(=O)n(C3CC3)c(=O)c3c(Nc4ccc(I)cc4F)n(C)c(=O)c(C)c32)c1 [Trametinib] (partner 0.02 µM) in the same assay as above. Conditions: first compound 0.02 µM.
How it was run: as §1

Cell Line | relative viability
NCI-H2405 | 0.622
HOP-62 | 0.355
HCC-44 | 0.961
LU99A | 0.564
BEN | 1.06
HARA | 0.477
HCC-78 | 0.772
NCI-H322M | 0.535
LCLC-97TM1 | 0.197
NCI-H2009 | 0.256
A-427 | 0.777
NCI-H441 | 0.409
NCI-H661 | 0.709
NCI-H1734 | 0.645
NCI-H460 | 0.0917
NCI-H2347 | 0.296

Cell Line | relative viability
SK-LU-1 | 0.506
201T | 0.669
NCI-H1915 | 0.289
HCC-827 | 0.611
LXF-289 | 0.671
NCI-H23 | 0.346
NCI-H647 | 0.459
NCI-H1651 | 0.821
EPLC-272H | 0.253
NCI-H1792 | 0.363
NCI-H1355 | 0.385
NCI-H3122 | 0.246
NCI-H1437 | 0.475
NCI-H1755 | 0.719
NCI-H2023 | 0.511
HCC-15 | 0.41

Same assay, conditions: first compound 0.06325 µM

Cell Line | relative viability
NCI-H2405 | 0.765
HOP-62 | 0.366
HCC-44 | 1
LU99A | 0.47
BEN | 0.885
HARA | 0.632
HCC-78 | 0.643
NCI-H322M | 0.507
LCLC-97TM1 | 0.193
NCI-H2009 | 0.356
A-427 | 0.773
NCI-H441 | 0.52
NCI-H661 | 0.557
NCI-H460 | 0.0921
NCI-H2347 | 0.295
SK-LU-1 | 0.417
201T | 0.726
NCI-H1915 | 0.305
HCC-827 | 0.35
LXF-289 | 0.655
NCI-H23 | 0.489
NCI-H647 | 0.52
NCI-H1651 | 0.642
EPLC-272H | 0.261
NCI-H1355 | 0.432
NCI-H3122 | 0.261
NCI-H1437 | 0.448
NCI-H1755 | 0.642
NCI-H2023 | 0.539
HCC-15 | 0.393

Same assay, conditions: first compound 0.2 µM

Cell Line | relative viability
NCI-H2405 | 0.648
HOP-62 | 0.419
HCC-44 | 1.05
LU99A | 0.607
BEN | 0.986
HARA | 0.507
HCC-78 | 0.677
NCI-H322M | 0.469
LCLC-97TM1 | 0.222
NCI-H2009 | 0.284
A-427 | 0.725
NCI-H441 | 0.451
NCI-H661 | 0.606
NCI-H1734 | 0.802
NCI-H460 | 0.223
NCI-H2347 | 0.225

Cell Line | relative viability
SK-LU-1 | 0.558
201T | 0.718
NCI-H1915 | 0.323
HCC-827 | 0.505
LXF-289 | 0.649
NCI-H23 | 0.361
NCI-H647 | 0.545
NCI-H1651 | 0.86
EPLC-272H | 0.273
NCI-H1792 | 0.542
NCI-H1355 | 0.462
NCI-H3122 | 0.237
NCI-H1437 | 0.534
NCI-H1755 | 0.823
NCI-H2023 | 0.516
HCC-15 | 0.397

Same assay, conditions: first compound 0.6325 µM

Cell Line | relative viability
NCI-H2405 | 0.623
HOP-62 | 0.369
HCC-44 | 1.12
LU99A | 0.587
BEN | 1.05
HARA | 0.788
HCC-78 | 0.794
NCI-H322M | 0.503
LCLC-97TM1 | 0.232
NCI-H2009 | 0.252
A-427 | 0.75
NCI-H441 | 0.343
NCI-H661 | 0.526
NCI-H1734 | 0.625
NCI-H460 | 0.11
NCI-H2347 | 0.312

Cell Line | relative viability
SK-LU-1 | 0.542
201T | 0.736
NCI-H1915 | 0.301
HCC-827 | 0.456
LXF-289 | 0.662
NCI-H23 | 0.394
NCI-H647 | 0.444
NCI-H1651 | 0.849
EPLC-272H | 0.296
NCI-H1792 | 0.386
NCI-H1355 | 0.413
NCI-H3122 | 0.191
NCI-H1437 | 0.45
NCI-H1755 | 0.772
NCI-H2023 | 0.428
HCC-15 | 0.353

Same assay, conditions: first compound 2 µM

Cell Line | relative viability
NCI-H2405 | 0.399
HOP-62 | 0.38
HCC-44 | 1
LU99A | 0.427
BEN | 0.856
HARA | 0.672
HCC-78 | 0.532
NCI-H322M | 0.383
LCLC-97TM1 | 0.167
NCI-H2009 | 0.232
A-427 | 0.596
NCI-H441 | 0.305
NCI-H661 | 0.618
NCI-H1734 | 0.653
NCI-H460 | 0.0876
NCI-H2347 | 0.156

Cell Line | relative viability
SK-LU-1 | 0.407
201T | 0.713
NCI-H1915 | 0.291
HCC-827 | 0.544
LXF-289 | 0.688
NCI-H23 | 0.223
NCI-H647 | 0.389
NCI-H1651 | 0.725
EPLC-272H | 0.293
NCI-H1792 | 0.248
NCI-H1355 | 0.382
NCI-H3122 | 0.235
NCI-H1437 | 0.329
NCI-H1755 | 0.764
NCI-H2023 | 0.427
HCC-15 | 0.263
